Results: patent US20260248799A1, “COMBINATIONS OF RETINALDEHYDE DEHYDROGENASE 1 (RALDH1) INHIBITORS AND IMMUNOSTIMULATORS AND METHODS USING SAME” (The Trustees of the University of Pennsylvania, priority 2023, published 2026)

Experiments:
[1] = biological target: T1, Serotonin (5-Hydroxytryptamine) 5-HT2C (Homo sapiens, UniProt P28335); assay: Safetyscreen: 5-HT2C; type: binding; settings: read-out: % Inh. Serotonin (5-Hydroxytryptamine) 5-HT2C
T1 construct: Eurofins Cereps Panlabs (contract panel)

Adenosine A1 = biological target: T2, Adenosine A1 (Homo sapiens, UniProt P30542); assay: Safetyscreen: Adenosine A1; type: binding; settings: read-out: % Inh. Adenosine A1
T2 construct: Eurofins Cerep Panlabs (contract panel)
T2 sequence (P30542 whole entry): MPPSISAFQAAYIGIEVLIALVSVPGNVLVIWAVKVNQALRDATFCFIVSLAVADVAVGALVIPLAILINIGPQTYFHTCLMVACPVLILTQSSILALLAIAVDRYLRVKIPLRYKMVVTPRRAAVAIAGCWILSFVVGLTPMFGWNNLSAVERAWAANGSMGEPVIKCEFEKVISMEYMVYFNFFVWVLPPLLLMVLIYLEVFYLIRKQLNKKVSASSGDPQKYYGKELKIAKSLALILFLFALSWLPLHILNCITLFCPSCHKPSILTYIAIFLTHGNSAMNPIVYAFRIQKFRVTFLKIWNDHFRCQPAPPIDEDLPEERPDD

Vasopressin V1A = biological target: T3, Vasopressin V1A (Homo sapiens, UniProt P37288); assay: Safetyscreen: Vasopressin V1A; type: binding; settings: read-out: % Inh. Vasopressin V1A
T3 construct: purchased Eurofins Cereps Panlabs

[2] = test system: Glycine, Strychnine-Sensitive; assay: Safetyscreen: Glycine, Strychnine-Sensitive; type: binding, rat; settings: 10 μM
[3] = biological target: T4, Protein Tyrosine Kinase, LCK (Homo sapiens, UniProt P06239); assay: Safetyscreen: LCK; type: biochemical; settings: read-out: % Inh. Protein Tyrosine Kinase, LCK
T4 construct: Eurofins Cerep Panlabs (contract panel)
T4 sequence (P06239 whole entry): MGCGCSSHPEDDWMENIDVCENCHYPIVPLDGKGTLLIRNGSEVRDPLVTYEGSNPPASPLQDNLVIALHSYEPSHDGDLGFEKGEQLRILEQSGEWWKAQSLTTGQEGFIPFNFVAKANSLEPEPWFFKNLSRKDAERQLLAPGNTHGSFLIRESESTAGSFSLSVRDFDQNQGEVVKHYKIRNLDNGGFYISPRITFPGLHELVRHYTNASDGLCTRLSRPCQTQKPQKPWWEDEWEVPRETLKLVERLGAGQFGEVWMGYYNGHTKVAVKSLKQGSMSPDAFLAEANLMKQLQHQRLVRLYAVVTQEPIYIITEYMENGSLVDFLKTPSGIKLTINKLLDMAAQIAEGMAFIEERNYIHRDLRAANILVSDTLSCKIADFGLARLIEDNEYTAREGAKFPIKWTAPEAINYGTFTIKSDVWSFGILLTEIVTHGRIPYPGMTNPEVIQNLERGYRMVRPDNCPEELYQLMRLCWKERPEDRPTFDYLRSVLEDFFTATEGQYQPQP

Monoamine Oxidase MAO-B = biological target: T5, Monoamine Oxidase MAO-B (Homo sapiens, UniProt P27338); assay: Safetyscreen: MAO-B; type: biochemical; settings: read-out: % Inh. Monoamine Oxidase MAO-B
T5 construct: Eurofins Cerep Panlabs (contract panel)

Transporter, GABA = biological target: T6, Transporter, GABA (Rattus norvegicus, UniProt P23978); assay: Safetyscreen: GABA transporter; type: binding; settings: read-out: % Inh. Transporter, GABA
T6 construct: purchased Eurofins Cereps Panlabs

Glutamate, NMDA, Glycine = assay: Safetyscreen: NMDA, Glycine; type: binding, rat; settings: 10 μM
Nicotinic Acetylcholine = assay: Safetyscreen: Nicotinic Acetylcholine; type: binding, human; settings: 10 μM
[4] = test system: macrophages from primary human monocytes; assay: Numbers of live monocyte-derived macrophages in vitro; type: cell-based; settings: C86 treated TCM or BMS493; three days
Description: FIGS. 24A-24E: Raldh1-INH blocks tumor supportive functions of monocytes and macrophages. FIG. 24A: Circulating primary human monocytes were collected from donors and cultured with MCSF (50 ng/mL) to generate macrophages. On day 3 of these cultures, DMSO or RA (100 nmol/L) was added to generate control monocyte-derived macrophages (Control-MoDM) or RA monocyte-derived macrophages (RA-MoDM), respectively. On day 7 of these cultures, macrophages were collected for each well after washing with 1×PBS, mixed with Huh7 cells at approximately 50:50 ratio, and the mix injected into the flanks of NU/J mice. Huh7 tumors cells that were not mixed with any macrophages before flank injection served as an additional control. Tumor volume was measured every 2 days (left graph). 19 days after tumor injection, mice were sacrificed and tumor weight (right graph) was measured. […] Three or more independent experiments were performed with at least three replicates per experimental group. Unpaired t test, two-tailed. […] Tumor growth was monitored daily (left graph). 13 days after tumor cell transplantation, mice were sacrificed and tumor weight measured (right graph). […] Three days later, cells were harvested, counted, and stained with PI for FCS analyses. […] Cell proliferation was measured by counting live cell numbers (y-axis). […] 72 hours later, the cells were washed, counted, and analyzed by FCS. […]

Calcium Channel N-Type = biological target: T7, Calcium Channel N-Type (Rattus norvegicus, UniProt Q02294); assay: Safetyscreen: Ca channel N-type; type: binding; settings: read-out: % Inh. Calcium Channel N-Type
T7 construct: purchased Eurofins Cereps Panlabs
T7 sequence (Q02294 whole entry): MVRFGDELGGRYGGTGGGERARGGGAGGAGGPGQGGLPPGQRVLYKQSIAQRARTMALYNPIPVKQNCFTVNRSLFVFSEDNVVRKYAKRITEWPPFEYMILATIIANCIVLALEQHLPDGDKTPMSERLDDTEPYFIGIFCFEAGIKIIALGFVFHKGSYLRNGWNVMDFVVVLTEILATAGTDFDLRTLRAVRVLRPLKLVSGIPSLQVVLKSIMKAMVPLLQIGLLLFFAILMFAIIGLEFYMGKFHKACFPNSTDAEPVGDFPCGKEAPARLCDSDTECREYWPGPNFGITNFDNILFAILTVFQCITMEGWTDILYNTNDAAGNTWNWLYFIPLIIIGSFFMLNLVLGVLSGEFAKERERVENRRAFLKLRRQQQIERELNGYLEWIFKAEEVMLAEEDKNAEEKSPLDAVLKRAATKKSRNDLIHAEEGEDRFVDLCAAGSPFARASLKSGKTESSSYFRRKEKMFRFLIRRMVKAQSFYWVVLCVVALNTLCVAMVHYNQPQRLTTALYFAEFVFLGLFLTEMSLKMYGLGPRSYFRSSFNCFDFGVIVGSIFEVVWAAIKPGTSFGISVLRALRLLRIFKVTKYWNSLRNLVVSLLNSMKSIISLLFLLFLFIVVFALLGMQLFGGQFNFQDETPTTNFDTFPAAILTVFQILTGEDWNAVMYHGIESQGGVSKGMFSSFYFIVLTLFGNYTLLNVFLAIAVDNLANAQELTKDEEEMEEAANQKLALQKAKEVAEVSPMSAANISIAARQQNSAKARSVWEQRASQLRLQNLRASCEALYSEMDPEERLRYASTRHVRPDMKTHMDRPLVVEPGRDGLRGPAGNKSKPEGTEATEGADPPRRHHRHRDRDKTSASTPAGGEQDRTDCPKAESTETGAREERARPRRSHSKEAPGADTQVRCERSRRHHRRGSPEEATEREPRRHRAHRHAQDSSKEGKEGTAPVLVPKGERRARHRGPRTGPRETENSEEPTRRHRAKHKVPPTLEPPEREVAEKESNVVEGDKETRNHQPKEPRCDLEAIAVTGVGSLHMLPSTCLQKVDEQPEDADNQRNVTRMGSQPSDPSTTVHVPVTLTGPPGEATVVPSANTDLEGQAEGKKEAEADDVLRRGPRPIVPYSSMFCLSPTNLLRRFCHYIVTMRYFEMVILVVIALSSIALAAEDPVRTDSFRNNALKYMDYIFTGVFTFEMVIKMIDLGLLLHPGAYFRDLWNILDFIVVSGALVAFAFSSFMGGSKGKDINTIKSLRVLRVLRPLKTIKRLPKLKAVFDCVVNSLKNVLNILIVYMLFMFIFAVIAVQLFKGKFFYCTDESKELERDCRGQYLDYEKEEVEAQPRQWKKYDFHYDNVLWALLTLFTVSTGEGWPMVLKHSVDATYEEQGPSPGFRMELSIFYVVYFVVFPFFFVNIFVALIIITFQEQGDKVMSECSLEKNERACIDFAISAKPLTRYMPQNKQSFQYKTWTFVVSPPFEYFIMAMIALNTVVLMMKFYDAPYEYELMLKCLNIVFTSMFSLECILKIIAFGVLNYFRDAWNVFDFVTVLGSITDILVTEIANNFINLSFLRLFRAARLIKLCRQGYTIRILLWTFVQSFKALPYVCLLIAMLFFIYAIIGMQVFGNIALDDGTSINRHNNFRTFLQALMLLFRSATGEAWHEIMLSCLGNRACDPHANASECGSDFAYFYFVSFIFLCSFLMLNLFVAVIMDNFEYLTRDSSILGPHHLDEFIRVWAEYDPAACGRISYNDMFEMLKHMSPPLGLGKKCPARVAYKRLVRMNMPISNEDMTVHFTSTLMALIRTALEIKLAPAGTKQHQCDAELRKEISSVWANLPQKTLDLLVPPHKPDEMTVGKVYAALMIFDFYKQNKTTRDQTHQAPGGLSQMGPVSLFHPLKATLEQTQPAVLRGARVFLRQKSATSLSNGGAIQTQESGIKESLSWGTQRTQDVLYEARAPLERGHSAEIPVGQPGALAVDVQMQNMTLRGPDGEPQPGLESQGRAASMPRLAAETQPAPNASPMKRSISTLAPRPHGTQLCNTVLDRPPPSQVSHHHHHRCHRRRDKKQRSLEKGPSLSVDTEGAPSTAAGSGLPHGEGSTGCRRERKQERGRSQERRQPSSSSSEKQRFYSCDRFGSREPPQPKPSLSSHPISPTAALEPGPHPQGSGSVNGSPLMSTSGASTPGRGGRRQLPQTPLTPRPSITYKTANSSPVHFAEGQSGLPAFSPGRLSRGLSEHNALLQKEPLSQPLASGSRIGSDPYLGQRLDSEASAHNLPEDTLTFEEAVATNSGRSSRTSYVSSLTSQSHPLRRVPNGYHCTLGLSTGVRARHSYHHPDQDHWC

[5] = biological target: T8, Transporter, Serotonin (5-Hydroxytryptamine) (SERT) (Homo sapiens, UniProt P31645); assay: Safetyscreen: SERT; type: binding; settings: read-out: % Inh. Transporter, Serotonin (5-Hydroxytryptamine) (SERT)
T8 construct: purchased Eurofins Cereps Panlabs
T8 sequence (P31645 whole entry): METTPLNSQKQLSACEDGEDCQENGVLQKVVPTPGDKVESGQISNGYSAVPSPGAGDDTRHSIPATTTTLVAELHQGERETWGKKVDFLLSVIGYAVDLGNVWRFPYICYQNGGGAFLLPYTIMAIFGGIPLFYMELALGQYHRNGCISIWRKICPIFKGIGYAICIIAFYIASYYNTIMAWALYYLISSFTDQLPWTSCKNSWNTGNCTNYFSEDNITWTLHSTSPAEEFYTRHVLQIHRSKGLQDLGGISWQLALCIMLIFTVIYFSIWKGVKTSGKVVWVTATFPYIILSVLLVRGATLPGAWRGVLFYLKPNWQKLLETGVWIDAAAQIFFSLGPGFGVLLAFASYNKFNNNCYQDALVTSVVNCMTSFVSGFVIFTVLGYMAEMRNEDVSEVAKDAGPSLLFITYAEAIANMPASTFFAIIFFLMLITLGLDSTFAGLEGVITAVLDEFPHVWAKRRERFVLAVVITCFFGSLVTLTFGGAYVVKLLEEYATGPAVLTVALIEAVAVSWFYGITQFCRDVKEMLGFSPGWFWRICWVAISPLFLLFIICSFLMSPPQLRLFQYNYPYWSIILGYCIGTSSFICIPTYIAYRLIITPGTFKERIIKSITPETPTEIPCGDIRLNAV

[6] = test system: GABAA, Ro-15-1788, Hippocampus; assay: Safetyscreen: GABAA, Ro-15-1788; type: binding, rat; settings: 10 μM
Adrenergic α1A = biological target: T9, Adrenergic α1A (Rattus norvegicus, UniProt P43140); assay: Safetyscreen: Adrenergic α1A; type: binding; settings: read-out: % Inh. Adrenergic α1A
T9 construct: Eurofins Cerep Panlabs (contract panel)

Adrenergic β1 = biological target: T10, Adrenergic β1 (Homo sapiens, UniProt P08588); assay: Safetyscreen: Adrenergic β1; type: binding; settings: read-out: % Inh. Adrenergic β1
T10 construct: Eurofins Cerep Panlabs (contract panel)
T10 sequence (P08588 whole entry): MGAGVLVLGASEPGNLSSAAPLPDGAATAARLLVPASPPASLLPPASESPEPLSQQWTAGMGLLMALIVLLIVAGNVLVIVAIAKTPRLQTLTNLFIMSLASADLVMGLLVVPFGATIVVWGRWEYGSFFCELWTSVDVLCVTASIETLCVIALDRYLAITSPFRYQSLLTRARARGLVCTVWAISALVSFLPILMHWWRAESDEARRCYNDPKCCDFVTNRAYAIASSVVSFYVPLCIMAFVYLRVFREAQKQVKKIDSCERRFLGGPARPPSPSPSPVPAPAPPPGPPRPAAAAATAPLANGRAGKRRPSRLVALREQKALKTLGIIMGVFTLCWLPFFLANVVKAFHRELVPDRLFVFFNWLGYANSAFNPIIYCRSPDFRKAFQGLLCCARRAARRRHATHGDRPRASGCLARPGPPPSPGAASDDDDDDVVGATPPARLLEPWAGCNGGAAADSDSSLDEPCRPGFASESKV

Opiate δ1 (OP1, DOP) = biological target: T11, Opiate δ1 (OP1, DOP) (Homo sapiens, UniProt P41143); assay: Safetyscreen: Opiate δ1; type: binding; settings: read-out: % Inh. Opiate δ1 (OP1, DOP)
T11 construct: Eurofins Cereps Panlabs (contract panel)

Structure (SMILES): CS(=O)(=O)N1CCN(C(=O)c2cnc3ccc(F)cc3c2N2CCC(C#N)(c3ccccc3)CC2)CC1 [Compound C-86, 1-(6-fluoro-3-(4-(methylsulfonyl)piperazine-1-carbonyl)quinolin-4-yl)-4-phenylpiperidine-4-carbonitrile]
- inhibition at 10 µM [1]: 22%
- inhibition at 10 µM (Adenosine A1): 4%
- inhibition at 10 µM (Vasopressin V1A): -13%
- % Inh. Glycine, Strychnine-Sensitive [2]: 23%
- inhibition at 10 µM [3]: 3%
- inhibition at 10 µM (Monoamine Oxidase MAO-B): 4%
- inhibition at 10 µM (Transporter, GABA): 4%
- % Inh. Glutamate, NMDA, Glycine (Glutamate, NMDA, Glycine): 20%
- % Inh. Nicotinic Acetylcholine (Nicotinic Acetylcholine): 5%
- RA and tumor-CM induced increase in macrophage numbers [4]: reversed
- inhibition at 10 µM (Calcium Channel N-Type): 6%
- inhibition at 10 µM [5]: 17%
- % Inh. GABAA, Ro-15-1788, Hippocampus [6]: −7%
- inhibition at 10 µM (Adrenergic α1A): 6%
- inhibition at 10 µM (Adrenergic β1): 3%
- inhibition at 10 µM (Opiate δ1 (OP1, DOP)): 2%
